In assay [1] the target is T1, α1A-AR (Homo sapiens, UniProt P35348).
T1 sequence (P35348 1-466): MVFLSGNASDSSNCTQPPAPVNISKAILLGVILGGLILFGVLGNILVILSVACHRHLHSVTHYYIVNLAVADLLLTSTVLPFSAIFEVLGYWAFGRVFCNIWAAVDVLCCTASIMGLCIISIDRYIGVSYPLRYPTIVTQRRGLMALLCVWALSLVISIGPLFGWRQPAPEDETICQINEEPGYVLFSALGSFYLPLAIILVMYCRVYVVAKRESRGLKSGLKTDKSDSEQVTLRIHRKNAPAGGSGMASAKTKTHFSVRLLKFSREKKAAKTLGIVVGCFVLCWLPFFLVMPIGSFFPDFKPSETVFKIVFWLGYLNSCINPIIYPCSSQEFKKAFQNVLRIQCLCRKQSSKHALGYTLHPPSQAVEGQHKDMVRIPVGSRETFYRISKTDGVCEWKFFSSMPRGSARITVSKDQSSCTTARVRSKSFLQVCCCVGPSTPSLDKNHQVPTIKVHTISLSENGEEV
Description: MAPK activation (AlphaScreen SureFire p-ERK) in α1A-AR transduced HEK-293/EBNA cells. Type of assay: cell-based. Set-up: expressed in transfected cells; host or cells: HEK-293/EBNA (baculovirus transduction, NaBu induction). To be noted: data not shown. How it is done: (§1) Prior to experiments, cells were transduced with baculovirus strains designed for transient expression of α1A-AR or aldehyde oxidase (negative control). This was performed by incubating cells with virus (MOI 100–150) for 3 to 4 h, followed by exchange into fresh serum free growth medium supplemented with 4 mM sodium butyrate (NaBu). Cells were grown for another 14 to 18 h and then examined for agonist-evoked responses in transient Ca^2+ release, IP accumulation or pERK activation assays. The surface receptor expression density was determined by flow cytometry via immunofluorescence labeling of an N-terminal HA epitope tag on the receptor and radioligand binding in partially purified membranes.
Graphs shown reflect either pooled or representative data (see figure legends). For concentration-response analysis, results from Ca^2+ mobilization experiments were plotted as ΔF/F0 vs. agonist concentration and fit to a sigmoidal concentration-response equation using the GraphPad Prism software package. […] For radioligand binding experiments, B max values were calculated from maximum binding using the equation B max = (SB × ([…] + [L])/[L]), where SB is the specific binding expressed as fmol per mg of membrane protein, and [L] is the ligand concentration.
(Bead proximity is the source of the signal in Alpha formats.)

For assay [2], the system named is α1A-AR. Description: Ca2+ transient response (FLIPR, fluo3) in α1A-AR transduced HEK-293/EBNA cells. To be noted: α1A-AR HEK-293/EBNA; for effect of antagonist on Iso-evoked Ca2+ response: RS100329 10 nM, ICI 118551 10 nM, atenolol 1 μM. The format is cell-based. The protocol:
as §1
(§2) Cells were resuspended in Hank’s balanced salt solution (Invitrogen) supplemented with 2 mM CaCl2, 10 mM HEPES pH 7.4, 2.5 mM probenecid, plus 1g/L each of glucose and bovine serum albumin (BSA), and seeded in poly-D-lysine coated 96-well black plates with transparent bottom (Costar) at a density of 50,000 cells/0.1 mL per well. Cells were then incubated for 1 h at 37°C with an additional 0.1 mL of buffer containing 4 μM fluo3-AM that was diluted from a stock solution containing 1 mM fluo3-AM dye in DMSO with 10% pluronic acid. After dye loading incubation, plates were washed twice with 100 μL of buffer and refilled with 100 μL of assay buffer. In experiments testing the effect of antagonists, 25 μL of buffer from wells of washed cells were replaced with 25 μL of vehicle or 4× antagonist solution. Pre-incubation of ligand with dye-loaded cells proceeded for 5–30 minutes immediately prior to measurements of agonist-evoked responses. Agonist-evoked Ca^2+ mobilization responses of cell populations were monitored at room temperature simultaneously in all wells of the assay plate using the plate-imaging fluorometric reader FLIPR (MDS Analytical Technologies, Sunnyvale, CA). […] The amplitudes of Ca^2+ transient responses are reported as ΔF/F0, or fold-change in Ca^2+ dye fluorescence relative to the baseline signal ΔF/F0 = (F-F0)/F0 +1 (where ΔF is maximal fluorescence intensity observed following agonist application, F0 = baseline fluorescence, or average intensity measured over the 10 s interval prior to agonist application). Image acquisition rates were varied from 1 Hz during the first 100 s of measurements to 0.5 Hz for the remaining time of the recording.
(§3) Graphs shown reflect either pooled or representative data (see figure legends). For concentration-response analysis, results from Ca^2+ mobilization experiments were plotted as ΔF/F0 vs. agonist concentration and fit to a sigmoidal concentration-response equation using the GraphPad Prism software package. In cases where biphasic concentration-response curves were observed data were fit to a two-site concentration-response model: F(X)=R0+(Rmax−R0)[Fr1/(1+10^X-logEC50,1)+(1−Fr1)/(1+10^X-logEC50,2)] (1) , where X is the logarithm of the agonist concentration, R0 and Rmax are respectively the response minimum and maximum; Fr1 is the response fraction attributable to receptor characterized by half effective concentration of the first response phase (EC50,1), with the reminder response attributable to the second half effective concentration (EC50,2). For radioligand binding experiments, B max values were calculated from maximum binding using the equation B max = (SB × ([…] + [L])/[L]), where SB is the specific binding expressed as fmol per mg of membrane protein, and [L] is the ligand concentration.

A further assay relates to HEK293/EBNA cells. The experiment in a line: IP accumulation (IP-One HTRF) in untransduced HEK-293/EBNA cells. The conditions noted are these: HEK293/EBNA untransduced. Type of assay: cell-based.
The target of assay [3] is T1, α1A-AR. Description: LC-MS detection of IP1, IP2 and IP3 in α1A-AR_CHO stable cells. The format is cell-based. The conditions noted are these: α1A-AR CHO, Iso up to 1 mM. Also on record: expressed in transfected cells. How it is done:
(§4) After that, the medium was replaced with agonist solution in assay buffer (20 mM HEPES, 10 mM glucose, 1.8 mM CaCl2, 0.5 mM MgSO4, in HBSS 1X buffer, 50 mM LiCl) and cells were incubated at 37°C for 30 min. Stimulation was stopped by exchange of assay buffer with lysis buffer (100 μL 0.1N HCl/MeOH), and lysis proceeded for 30 min at 4°C. Cellular levels of inositol phosphates were determined using a Thermo LC-MS detection system following a published protocol. Chromatography was performed employing a BioBasic column AX (50 × 2.1 mm, Thermo). The mobile phase consisted of solvent A: 10 mM ammonium acetate, pH 6 in 30/70 acetonitrile/water, and solvent B: 1 mM ammonium acetate, pH 11 in 30/70 acetonitrile/water. A gradient solvent system was used starting with 0% solvent B, and analytes were eluted by increasing solvent B to 100% over 3 min. Each data point represents the average of triplicate determinations and each experiment was performed at least three times independently.
IP1, IP2, and IP3 levels were determined via LC-MS. Plots are representative of three independent experiments with each data point being the average of triplicates.

For assay [4], the target named is T1, α1A-AR. The experiment in a line: Ca2+ transient response (FLIPR, fluo3) in α1A-AR transduced HEK-293/EBNA cells. Type of assay: cell-based. Set-up: expressed in transfected cells; host or cells: HEK-293/EBNA (baculovirus transduction, NaBu induction). To be noted: 100 nM NE, α1A-AR_HEK-293/EBNA. The protocol:
as §1, §2, §3

Assay [5] has as its target T1, α1A-AR. The experiment in a line: LC-MS detection of IP1, IP2 and IP3 in α1A-AR transduced HEK-293/EBNA cells. Type of assay: cell-based. Also on record: expressed in transfected cells; host or cells: HEK-293/EBNA (baculovirus transduction, NaBu induction). The conditions noted are these: Iso up to 10 mM. How it is done:
as §4, with “Virally transduced HEK-293/EBNA cells were resuspended in growth medium and seeded in poly-D-lysine coated 96-well black plates at a density of 100,000 cells/0.1 mL per well, Cells were allowed to attach for 2 hours at 37°C in a humidified atmosphere of 95% air and 5% CO2. After” for “After”

Another assay has as its target T2, β2-AR (Homo sapiens, UniProt P07550).
T2 construct: HEK-293/EBNA cells are known to express β2-AR endogenously; endogenous in cells; host or cells: HEK-293/EBNA (untransduced or negative-control transduced)
Description: Ca2+ transient response (FLIPR, fluo3) in untransduced / negative control HEK-293/EBNA cells. Type of assay: cell-based. The conditions noted are these: non-transduced control cells; ICI 118551 10 nM, RS100329 10 nM, atenolol 1 μM. The protocol: as §1
Cells were resuspended in Hank’s balanced salt solution (Invitrogen) supplemented with 2 mM CaCl2, 10 mM HEPES pH 7.4, 2.5 mM probenecid, plus 1g/L each of glucose and bovine serum albumin (BSA), and seeded in poly-D-lysine coated 96-well black plates with transparent bottom (Costar) at a density of 50,000 cells/0.1 mL per well. […] Agonist-evoked Ca^2+ mobilization responses of cell populations were monitored at room temperature simultaneously in all wells of the assay plate using the plate-imaging fluorometric reader FLIPR (MDS Analytical Technologies, Sunnyvale, CA). […]

The subject of assay [6] is α1A-AR. To be noted: for α1A-AR; cited from earlier work.
The target in assay [7] is T1, α1A-AR. The experiment in a line: Ca2+ transient response (FLIPR) in α1A-AR_CHO stable cells. The format is cell-based. Set-up: expressed in transfected cells. The conditions noted are these: antagonist at 100 nM. How it is done:
as §2, with “In experiments testing the effect of antagonists, 25 μL of buffer from wells of washed cells were replaced with 25 μL of vehicle or 4× antagonist solution. Pre-incubation of ligand with dye-loaded cells proceeded for 5–30 minutes immediately prior to measurements of agonist-evoked responses.” left out, “Image acquisition rates were varied from 1 Hz during the first 100 s of measurements to 0.5 Hz for the remaining time of the recording.” left out
IP1, IP2, and IP3 levels were determined via LC-MS. […]

The target of assay [8] is T1, α1A-AR. The experiment in a line: IP accumulation (IP-One HTRF) in α1A-AR transduced HEK-293/EBNA cells. To be noted: 10 nM antagonist preincubation; large rightward shift in A-61603 potency. Set-up: expressed in transfected cells; host or cells: HEK-293/EBNA (baculovirus transduction, NaBu induction). Type of assay: cell-based. The protocol:
as §1
After 10–20 minutes, 10 μL of agonist was added followed by incubation for 5 to 30 minutes. Stimulation was stopped by addition of lysis buffer. Second messenger levels were determined using a homogeneous immunoassay method with time-resolved FRET detection (IP-One HTRF, Cisbio International) according to protocols provided by the supplier. Sample fluorescence was measured with a Nanoscan plate reader (IOM, Berlin). Each data point represents the average of quadruplicate determinations and each experiment was performed at least two times independently.
A general note: TR-FRET usually uses a lanthanide donor and a delayed reading to cut background.

The pKB is the negative decadic logarithm of the KB, by convention in mol/L.

T2 sequence (P07550 whole entry): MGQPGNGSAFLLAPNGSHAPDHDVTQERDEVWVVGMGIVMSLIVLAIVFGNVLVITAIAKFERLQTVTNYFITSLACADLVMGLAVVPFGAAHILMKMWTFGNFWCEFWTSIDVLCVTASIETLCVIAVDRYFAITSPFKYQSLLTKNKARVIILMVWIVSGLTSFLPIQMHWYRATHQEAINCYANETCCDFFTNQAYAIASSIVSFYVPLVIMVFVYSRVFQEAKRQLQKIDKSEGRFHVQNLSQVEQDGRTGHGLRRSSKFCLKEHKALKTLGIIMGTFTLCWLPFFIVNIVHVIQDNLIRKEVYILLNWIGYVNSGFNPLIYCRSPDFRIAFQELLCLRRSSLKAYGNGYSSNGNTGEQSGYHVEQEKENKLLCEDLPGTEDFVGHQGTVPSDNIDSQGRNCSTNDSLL

As to `COc1cc2ncnc(Nc3cccc(Cl)c3)c2cc1OC` [AG1478], the “effect of EGFR inhibition on Iso induced α1A-AR stimulation of ERK1/2” value at α1A-AR [1] is given as “not affected”.

In the case of `Cc1ccc(OCC(O)C(C)NC(C)C)c2c1CCC2` (centres unmarked) [ICI 118551], in the assay on α1A-AR [2] (ICI 118551 at 10 nM), the “attenuation of responses to high Iso concentrations” value is listed as about 50%. In the assay on α1A-AR [2], the “effect of antagonist on Iso-evoked Ca2+ response” value was “abolished responses to low Iso concentrations”.

`NC[C@H](O)c1ccc(O)c(O)c1` [NE, norepinephrine]: the “EC50 IP” value in the assay on HEK293/EBNA cells was “BQL”. In addition, the “cellular concentration of inositol phosphates IP1, IP2 and IP3” value at α1A-AR [3] is “concentration-dependent increases”. In addition, the “time to peak response amplitude post-agonist addition” value at α1A-AR [4] is at most 10 s. Moreover, on α1A-AR [5], the “cellular levels of inositol phosphates IP1, IP2 and IP3” value is on record as “concentration-dependent increases”.

`Cc1c[nH]c(=O)n(CCCN2CCN(c3ccccc3OCC(F)(F)F)CC2)c1=O` [RS100329]: the “effect of antagonist on Iso-evoked Ca2+ response” value with α1A-AR [2] is “virtually complete blocking of the low potency phase”; at β2-AR, “ineffective”. Further, the pKB in the assay on α1A-AR [6] is 9.6. Further, the “effect of antagonist pretreatment on Iso Ca2+ response” value at α1A-AR [7] was “blocked”. Further, on α1A-AR [8], the “effect of antagonist on A-61603-stimulated IP accumulation” value is recorded as “significantly attenuated IP accumulation”.

On to `CC(C)NCC(O)COc1ccc(CC(N)=O)cc1` (centres unmarked) [atenolol], for which the “effect of antagonist on Iso-evoked Ca2+ response” value in the assay on α1A-AR [2] is listed as “had no effect”.

In the case of `CC(C)NCC(O)COc1cccc2ccccc12` (centres unmarked) [propranolol], the “effect of antagonist pretreatment on Iso Ca2+ response” value on α1A-AR [7] is on record as “insensitive”.

The record behind these values is article PMC4301629 (PLoS ONE, 2015).
